Results taken from PMC11697113, “The Hsc70 system maintains the synaptic SNARE protein SNAP-25 in an assembly-competent state and delays its aggregation [drawing 1]” (The Journal of Biological Chemistry, 2024).

Molecular target: T1, Hsc70 (Homo sapiens, UniProt P11142)
T1 construct: 6X His-tag (TEV-cleavable) (cleaved yes); made in house; host or cells: E. coli Rosetta (DE3)
Test: SNAP-25 cellulose-bound peptide array probed with Hsc70
Assay type: binding
Conditions: Hsc70 100 nM, 1 h, 25 °C; for Hsc70 binding of the SNAP-25 sequence in the peptide array: ADP/ATP, anti-Hsc70 chemiluminescence
Excerpt: To explore in greater depth the binding sites for Hsc70 in SNAP-25, we screened a cellulose-bound peptide array spanning the full SNAP-25 sequence with 13-residue long peptides, overlapping by ten residues, and probed with Hsc70 in the presence of a two-fold excess of ATP and […] of ADP. The binding of Hsc70 to sites in the array was then visualized with an anti-Hsc70 primary antibody and a horse radish peroxidase-tagged secondary antibody to enable visualization by chemiluminescence (Fig. 4A). To quantitatively analyze the array, we used ImageJ (https://imagej.net/ij/) and plotted the intensity under the area for each spot. […] One site is located in the SNN, one in the LOOP, and one in the LOOP-SNC region (called SNC site) (Fig. 4A) […] (Fig. 1C). […] The binding site in the LOOP region is very close to the cysteine residues that become palmitoylated as SNAP-25 moves to its membrane-localized state. It is formally possible that Hsc70 binds to SNAP-25 in the initial un-palmitoylated state and dissociates upon palmitoylation and association with the plasma membrane. However, it can be assumed that the binding of this region to Hsc70 is not implicated in the events directly preceding SNARE complex assembly, as it will not be accessible to the chaperone. Therefore, we posit that chaperone binding to the SNN and SNC regions plays a mechanistic role in facilitating productive SNAP-25 association with the other SNARE proteins.
B, quantification of the spots from Figure 4A using ImageJ (Hsc70 (gray) and Hsc70-CSPαJ (dark gray)). Signals corresponding to SNN, Loop and Loop-SNC peptides are marked in orange, blue, and green, respectively. Orange, blue, and green lines at the top of the graph indicate the SNN, Loop and SNC regions, respectively. C, schematic representation of SNAP-25 showing the Hsc70 binding sequences (SNN (orange), Loop (black), and Loop-SNC (green)) identified in the peptide array. […]
A peptide array of SNAP-25 was obtained from CEM corporation. […] The chemiluminescence was captured in a G-box (Syngene), and the images were analyzed using ImageJ.

T1 sequence (P11142 whole entry): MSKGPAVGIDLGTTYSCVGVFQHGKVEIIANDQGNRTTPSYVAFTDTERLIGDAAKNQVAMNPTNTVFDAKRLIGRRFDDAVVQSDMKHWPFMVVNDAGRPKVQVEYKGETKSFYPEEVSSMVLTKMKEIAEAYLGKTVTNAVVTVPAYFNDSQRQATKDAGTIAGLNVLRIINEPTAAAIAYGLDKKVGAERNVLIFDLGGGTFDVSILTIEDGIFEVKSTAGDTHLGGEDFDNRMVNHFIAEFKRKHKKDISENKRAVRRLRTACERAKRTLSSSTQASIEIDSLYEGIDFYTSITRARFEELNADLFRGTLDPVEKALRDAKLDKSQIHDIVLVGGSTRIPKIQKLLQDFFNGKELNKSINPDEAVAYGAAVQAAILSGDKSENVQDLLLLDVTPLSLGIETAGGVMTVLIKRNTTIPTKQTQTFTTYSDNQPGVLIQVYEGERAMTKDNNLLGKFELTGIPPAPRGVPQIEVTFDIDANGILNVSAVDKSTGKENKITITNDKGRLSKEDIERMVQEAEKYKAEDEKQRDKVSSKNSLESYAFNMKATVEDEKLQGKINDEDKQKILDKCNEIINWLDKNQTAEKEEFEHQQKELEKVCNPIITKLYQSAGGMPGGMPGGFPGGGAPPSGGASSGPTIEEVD

Substance | Hsc70 binding of the SNAP-25 sequence in the peptide array | number of major Hsc70 binding sites on SNAP-25 (13-residue peptides overlapping by ten, 20 μM ADP, 200 nM ATP, ECL, ImageJ, sites in SNN, LOOP and LOOP-SNC)
EREQMAISGGFIRR [SNCP, peptide … from the LOOP-SNC domain of SNAP-25] | strong binding | –
RRMLQLVEESK [SNNP, peptide … from the SNN domain of SNAP-25] | strong binding | –
synaptosomal-associated 25 kDa protein [SNAP-25] | – | Three major Hsc70 binding sites
